Measurements: the NIST ThermoML archive (doi:10.1016/j.jct.2016.10.023)

Test: xn = mol fraction of the nth substance listed
Details: Constant-volume piezometry

CCCCC [pentane] + CCCO
Details | mass density [kg/m3]
433.15 K, 35839 kPa, Liquid, x1 = 0.5 | 609.23
433.15 K, 36095 kPa, Liquid, x1 = 0.2 | 661.31
433.15 K, 41420 kPa, Liquid, x1 = 0.8 | 572.89
437.15 K, 2040 kPa, Gas, x1 = 0.8 | 58.65
438.15 K, 1323 kPa, Gas, x1 = 0.5 | 30.1
438.15 K, 2052 kPa, Gas, x1 = 0.8 | 58.65
438.15 K, 2515 kPa, Liquid, x1 = 0.5 | 509.1
440.15 K, 2121 kPa, Liquid, x1 = 0.2 | 584.41
443.15 K, 781 kPa, Gas, x1 = 0.5 | 15.58
443.15 K, 1062 kPa, Gas, x1 = 0.8 | 22.61
443.15 K, 1353 kPa, Gas, x1 = 0.5 | 30.1
443.15 K, 1529 kPa, Gas, x1 = 0.8 | 36.83
443.15 K, 2108 kPa, Gas, x1 = 0.8 | 58.64
443.15 K, 3419 kPa, Liquid, x1 = 0.2 | 584.3
443.15 K, 4067 kPa, Liquid, x1 = 0.5 | 508.96
443.15 K, 5776 kPa, Liquid, x1 = 0.5 | 521.85
443.15 K, 6119 kPa, Liquid, x1 = 0.8 | 468.84
443.15 K, 7864 kPa, Liquid, x1 = 0.2 | 598.01
443.15 K, 11620 kPa, Liquid, x1 = 0.8 | 498.47
443.15 K, 13293 kPa, Liquid, x1 = 0.5 | 550.88
443.15 K, 15549 kPa, Liquid, x1 = 0.2 | 617.55
443.15 K, 19116 kPa, Liquid, x1 = 0.8 | 523.16
443.15 K, 24271 kPa, Liquid, x1 = 0.5 | 577.21
443.15 K, 29321 kPa, Liquid, x1 = 0.2 | 638.71
443.15 K, 31113 kPa, Liquid, x1 = 0.5 | 589.73
443.15 K, 32587 kPa, Liquid, x1 = 0.8 | 550.89
443.15 K, 37375 kPa, Liquid, x1 = 0.5 | 600.38
443.15 K, 43094 kPa, Liquid, x1 = 0.2 | 660.83
446.15 K, 2393 kPa, Gas, x1 = 0.8 | 74.06
447.15 K, 1740 kPa, Gas, x1 = 0.5 | 40.63
448.15 K, 1748 kPa, Gas, x1 = 0.5 | 40.63
448.15 K, 2548 kPa, Liquid, x1 = 0.9 | 408.95
448.15 K, 2624 kPa, Liquid, x1 = 0.8 | 419.92
449.15 K, 2796 kPa, Liquid, x1 = 0.8 | 419.9
451.15 K, 2529 kPa, Gas, x1 = 0.9 | 83.67
452.15 K, 2545 kPa, Gas, x1 = 0.9 | 83.66
453.15 K, 804 kPa, Gas, x1 = 0.5 | 15.57
453.15 K, 1101 kPa, Gas, x1 = 0.8 | 22.6
453.15 K, 1255 kPa, Gas, x1 = 0.2 | 25.01
453.15 K, 1405 kPa, Gas, x1 = 0.5 | 30.08
453.15 K, 1584 kPa, Gas, x1 = 0.8 | 36.81
453.15 K, 1789 kPa, Gas, x1 = 0.5 | 40.62
453.15 K, 2048 kPa, Gas, x1 = 0.5 | 51.26
453.15 K, 2206 kPa, Gas, x1 = 0.8 | 58.61
453.15 K, 2494 kPa, Gas, x1 = 0.8 | 74.04
453.15 K, 2562 kPa, Gas, x1 = 0.9 | 83.66
453.15 K, 3375 kPa, Liquid, x1 = 0.9 | 408.84
453.15 K, 3511 kPa, Liquid, x1 = 0.8 | 419.81
453.15 K, 7204 kPa, Liquid, x1 = 0.5 | 508.66
453.15 K, 7807 kPa, Liquid, x1 = 0.2 | 583.93
453.15 K, 8728 kPa, Liquid, x1 = 0.8 | 468.58
453.15 K, 9366 kPa, Liquid, x1 = 0.5 | 521.54
453.15 K, 12785 kPa, Liquid, x1 = 0.2 | 597.62
453.15 K, 14688 kPa, Liquid, x1 = 0.8 | 498.18
453.15 K, 17282 kPa, Liquid, x1 = 0.5 | 550.54
453.15 K, 21030 kPa, Liquid, x1 = 0.2 | 617.14
453.15 K, 22882 kPa, Liquid, x1 = 0.8 | 522.84
453.15 K, 28840 kPa, Liquid, x1 = 0.5 | 576.84
453.15 K, 34516 kPa, Liquid, x1 = 0.2 | 638.29
453.15 K, 37125 kPa, Liquid, x1 = 0.8 | 550.54
455.15 K, 2058 kPa, Gas, x1 = 0.5 | 51.26
455.15 K, 2617 kPa, Liquid, x1 = 0.5 | 469.97
459.15 K, 2107 kPa, Liquid, x1 = 0.2 | 549.17
459.25 K, 2109 kPa, Liquid, x1 = 0.2 | 549.17
460.15 K, 2449 kPa, Liquid, x1 = 0.2 | 549.14
461.15 K, 3036 kPa, Gas, x1 = 0.8 | 106.72
463.15 K, 825 kPa, Gas, x1 = 0.5 | 15.56
463.15 K, 1134 kPa, Gas, x1 = 0.8 | 22.59
463.15 K, 1296 kPa, Gas, x1 = 0.2 | 25
463.15 K, 1450 kPa, Gas, x1 = 0.5 | 30.07
463.15 K, 1641 kPa, Gas, x1 = 0.8 | 36.79
463.15 K, 1866 kPa, Gas, x1 = 0.5 | 40.6
463.15 K, 2150 kPa, Gas, x1 = 0.5 | 51.24
463.15 K, 2308 kPa, Gas, x1 = 0.8 | 58.58
463.15 K, 2637 kPa, Gas, x1 = 0.8 | 74
463.15 K, 2727 kPa, Gas, x1 = 0.9 | 83.62
463.15 K, 3075 kPa, Liquid, x1 = 0.5 | 452.77
463.15 K, 3080 kPa, Gas, x1 = 0.8 | 106.71
463.15 K, 3117 kPa, Liquid, x1 = 0.9 | 355.23
463.15 K, 3523 kPa, Liquid, x1 = 0.2 | 549.04
463.15 K, 3571 kPa, Liquid, x1 = 0.5 | 459.88
463.15 K, 4516 kPa, Liquid, x1 = 0.5 | 469.76
463.15 K, 5048 kPa, Liquid, x1 = 0.9 | 408.62
463.15 K, 5052 kPa, Liquid, x1 = 0.9 | 408.62
463.15 K, 5310 kPa, Liquid, x1 = 0.8 | 419.58
463.15 K, 10451 kPa, Liquid, x1 = 0.5 | 508.36
463.15 K, 11344 kPa, Liquid, x1 = 0.8 | 468.31
463.15 K, 12276 kPa, Liquid, x1 = 0.2 | 583.56
463.15 K, 12696 kPa, Liquid, x1 = 0.5 | 521.23
463.15 K, 17686 kPa, Liquid, x1 = 0.2 | 597.23
463.15 K, 17835 kPa, Liquid, x1 = 0.8 | 497.88
463.15 K, 20989 kPa, Liquid, x1 = 0.5 | 550.21
463.15 K, 26488 kPa, Liquid, x1 = 0.2 | 616.73
463.15 K, 26685 kPa, Liquid, x1 = 0.8 | 522.53
463.15 K, 33534 kPa, Liquid, x1 = 0.5 | 576.47
463.15 K, 41577 kPa, Liquid, x1 = 0.8 | 550.2
463.15 K, 41859 kPa, Liquid, x1 = 0.2 | 637.82
464.15 K, 3225 kPa, Liquid, x1 = 0.9 | 355.21
465.15 K, 3139 kPa, Gas, x1 = 0.9 | 123.69
466.15 K, 3167 kPa, Gas, x1 = 0.9 | 123.69
468.15 K, 2722 kPa, Gas, x1 = 0.5 | 72.79
468.15 K, 3224 kPa, Gas, x1 = 0.9 | 123.67
468.15 K, 3337 kPa, Liquid, x1 = 0.5 | 442.3
468.15 K, 3480 kPa, Liquid, x1 = 0.8 | 346.36
468.15 K, 3796 kPa, Liquid, x1 = 0.8 | 362.98
469.15 K, 3297 kPa, Gas, x1 = 0.9 | 134.47
469.15 K, 3585 kPa, Liquid, x1 = 0.8 | 346.34
470.15 K, 2757 kPa, Gas, x1 = 0.5 | 72.78
470.15 K, 3441 kPa, Liquid, x1 = 0.9 | 310.06
470.15 K, 3577 kPa, Liquid, x1 = 0.9 | 332
473.15 K, 846 kPa, Gas, x1 = 0.5 | 15.56
473.15 K, 1166 kPa, Gas, x1 = 0.8 | 22.58
473.15 K, 1339 kPa, Gas, x1 = 0.2 | 24.99
473.15 K, 1500 kPa, Gas, x1 = 0.5 | 30.05
473.15 K, 1696 kPa, Gas, x1 = 0.8 | 36.78
473.15 K, 1943 kPa, Gas, x1 = 0.5 | 40.58
473.15 K, 2238 kPa, Gas, x1 = 0.5 | 51.21
473.15 K, 2408 kPa, Gas, x1 = 0.8 | 58.55
473.15 K, 2703 kPa, Gas, x1 = 0.5 | 67.68
473.15 K, 2775 kPa, Gas, x1 = 0.8 | 73.97
473.15 K, 2808 kPa, Gas, x1 = 0.5 | 72.77
473.15 K, 2888 kPa, Gas, x1 = 0.9 | 83.58
473.15 K, 3309 kPa, Gas, x1 = 0.8 | 106.65
473.15 K, 3339 kPa, Liquid, x1 = 0.5 | 418.35
473.15 K, 3349 kPa, Gas, x1 = 0.9 | 123.64
473.15 K, 3414 kPa, Gas, x1 = 0.9 | 134.44
473.15 K, 3511 kPa, Gas, x1 = 0.9 | 164.35
473.15 K, 3553 kPa, Gas, x1 = 0.9 | 189.91
473.15 K, 3564 kPa, Gas, x1 = 0.9 | 202.87

Liquid
Details | mass density [kg/m3]
438.95 K, x1 = 0.2 | 584.46
446.85 K, x1 = 0.8 | 419.95
447.55 K, x1 = 0.9 | 408.96
454.85 K, x1 = 0.5 | 469.97
458.15 K, x1 = 0.2 | 549.2
462.15 K, x1 = 0.5 | 452.82
462.85 K, x1 = 0.9 | 355.24
463.55 K, x1 = 0.8 | 363.07
466.15 K, x1 = 0.5 | 442.34
467.15 K, x1 = 0.8 | 346.37
467.15 K, x1 = 0.9 | 334.99
470.15 K, x1 = 0.8 | 334.76
470.15 K, x1 = 0.9 | 313.16
470.85 K, x1 = 0.9 | 302.48
471.25 K, x1 = 0.9 | 282.74
471.95 K, x1 = 0.9 | 244.86
472.05 K, x1 = 0.9 | 241.54
472.15 K, x1 = 0.9 | 237.12
472.65 K, x1 = 0.8 | 316.17
